The target in test [1] is T1, Beta-secretase 1 (Homo sapiens, UniProt P56817). Nature of the test: Inhibition of BACE1 expressed in SHSY5Y cells assessed as reduction of amyloid beta 40 production. The class given is cell-based, SH-SY5Y.
Test [2] has as its target Cathepsin D (Homo sapiens, UniProt P07339). Kind of test: Inhibition of cathepsin D.
Test [3] addresses T1, Beta-secretase 1. The test is classed as cell-based, SH-SY5Y.
For test [4], the target named is T1, Beta-secretase 1. Nature of the test: Inhibition of BACE1.
The target of test [5] is T2, Beta-secretase 2 (Homo sapiens, UniProt Q9Y5Z0).
T2 sequence (Q9Y5Z0 whole entry): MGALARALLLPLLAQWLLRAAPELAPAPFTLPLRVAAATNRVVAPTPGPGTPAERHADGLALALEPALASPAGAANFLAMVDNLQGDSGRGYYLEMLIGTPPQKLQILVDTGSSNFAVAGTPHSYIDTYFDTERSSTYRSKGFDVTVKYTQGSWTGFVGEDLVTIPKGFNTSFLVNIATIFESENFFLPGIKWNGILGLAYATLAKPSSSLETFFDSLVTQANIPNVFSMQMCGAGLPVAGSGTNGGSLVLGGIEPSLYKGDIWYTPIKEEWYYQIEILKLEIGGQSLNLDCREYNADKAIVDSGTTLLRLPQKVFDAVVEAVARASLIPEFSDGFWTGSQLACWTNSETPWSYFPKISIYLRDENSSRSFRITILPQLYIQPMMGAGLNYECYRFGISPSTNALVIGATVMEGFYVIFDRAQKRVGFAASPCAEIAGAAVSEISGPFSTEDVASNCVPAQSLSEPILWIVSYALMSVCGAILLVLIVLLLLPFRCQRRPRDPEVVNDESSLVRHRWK
Nature of the test: Inhibition of BACE2.

T1 sequence (P56817 whole entry): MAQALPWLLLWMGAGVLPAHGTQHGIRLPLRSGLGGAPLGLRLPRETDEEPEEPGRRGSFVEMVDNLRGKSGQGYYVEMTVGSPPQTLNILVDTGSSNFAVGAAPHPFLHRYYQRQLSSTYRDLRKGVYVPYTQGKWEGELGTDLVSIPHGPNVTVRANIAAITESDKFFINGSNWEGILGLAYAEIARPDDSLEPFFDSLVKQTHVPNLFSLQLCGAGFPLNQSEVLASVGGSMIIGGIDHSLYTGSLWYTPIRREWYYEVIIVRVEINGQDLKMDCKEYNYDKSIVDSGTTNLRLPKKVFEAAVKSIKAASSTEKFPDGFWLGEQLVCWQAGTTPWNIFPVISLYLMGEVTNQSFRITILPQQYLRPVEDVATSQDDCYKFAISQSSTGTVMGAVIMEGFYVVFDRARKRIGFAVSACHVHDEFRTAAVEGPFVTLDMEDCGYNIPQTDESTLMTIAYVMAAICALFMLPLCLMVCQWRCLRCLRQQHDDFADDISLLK
Cathepsin D, sequence (P07339 65-162 limits assumed): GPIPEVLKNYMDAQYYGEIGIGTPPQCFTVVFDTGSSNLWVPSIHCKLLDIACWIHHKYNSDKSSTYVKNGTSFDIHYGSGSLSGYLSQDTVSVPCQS
Cathepsin D, sequence (P07339 169-412 limits assumed): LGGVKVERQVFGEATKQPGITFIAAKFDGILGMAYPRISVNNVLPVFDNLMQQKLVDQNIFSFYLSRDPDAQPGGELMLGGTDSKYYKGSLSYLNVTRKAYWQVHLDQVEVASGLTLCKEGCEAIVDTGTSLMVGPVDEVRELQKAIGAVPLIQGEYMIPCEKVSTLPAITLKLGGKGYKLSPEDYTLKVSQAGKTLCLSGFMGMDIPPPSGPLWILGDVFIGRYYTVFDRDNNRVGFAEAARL

Consider `CC(C)Nc1cc(C(=O)N[C@@H](Cc2ccccc2)[C@H](O)CN[C@@H](C)C(=O)NC2CCCCC2)cc(N2CCCC2=O)c1`, for which the IC50 (as a rule, the point on the concentration scale where inhibition reaches its midpoint) stood at 330 nM in test [1]; 5410 nM in test [2]; 280 nM in test [3]; 39 nM in test [4]; 830 nM in test [5].

On to `C[C@H](NC[C@@H](O)[C@H](Cc1ccccc1)NC(=O)c1cc(N2CCCC2)cc(N2CCCC2=O)c1)C(=O)NC1CCCCC1`, for which the IC50 amounted to 9280 nM in test [2], 860 nM in test [4] and 8790 nM in test [5].

As to `CC(C)CNc1cc(C(=O)N[C@@H](Cc2ccccc2)[C@H](O)CN[C@@H](C)C(=O)NC2CCCCC2)cc(N2CCCC2=O)c1`, the results for the IC50 in test [2], in test [4] and in test [5] were 3090 nM, 180 nM and 650 nM, respectively.

For `CC(C)Oc1cc(C(=O)N[C@@H](Cc2ccccc2)[C@H](O)CN[C@@H](C)C(=O)NC2CCCCC2)cc(N2CCCC2=O)c1`, the concentration for half-maximal inhibition (IC50) is 1130 nM in test [1]; 12300 nM in test [2]; 1180 nM in test [3]; 120 nM in test [4]; 4790 nM in test [5].

Consider `CC(C)C[C@H](NC(=O)c1cccc(S(C)(=O)=O)c1)[C@H](O)CN[C@@H](C)C(=O)NC1CCCCC1`, for which the IC50 in test [4] was > 500000 nM.

Consider `CCCCCOc1cc(C(=O)N[C@@H](Cc2ccccc2)[C@H](O)CN[C@@H](C)C(=O)NC2CCCCC2)cc(N2CCCC2=O)c1`, for which the IC50 in test [2] amounted to 430 nM; in test [4], 32 nM; in test [5] it was 400 nM.

As for `C[C@H](NC[C@H](O)[C@H](Cc1ccccc1)NC(=O)c1cccc(S(C)(=O)=O)c1)C(=O)NC1CCCCC1`, the IC50 in test [4] is > 500000 nM.

For the molecule `CCCc1cc(C(=O)N[C@@H](Cc2ccccc2)[C@H](O)CN[C@@H](C)C(=O)NC2CCCCC2)cc(N2CCCC2=O)c1`, the half-inhibitory concentration (IC50) in test [1] was 990 nM; in test [2], 4570 nM; in test [3], 690 nM; in test [4] it was 72 nM; in test [5], 1580 nM.

In the case of `CCOc1cc(C(=O)N[C@@H](Cc2ccccc2)[C@H](O)CN[C@@H](C)C(=O)NC2CCCCC2)cc(N2CCCC2=O)c1`, the IC50 was 970 nM in test [1]; 7940 nM in test [2]; 1420 nM in test [3]; 59 nM in test [4]; 5130 nM in test [5].

As for `COc1cc(C(=O)N[C@@H](Cc2ccccc2)[C@H](O)CN[C@@H](C)C(=O)NC2CCCCC2)cc(N2CCCC2=O)c1`, the IC50 in test [2] worked out at 30000 nM; in test [4], 745 nM; in test [5], 28600 nM.

Take `CC(=O)Nc1ccc(C(=O)N[C@@H](Cc2ccccc2)[C@H](O)CN[C@@H](C)C(=O)NC2CCCCC2)cc1`: the figures for the IC50 in test [2], in test [4] and in test [5] were > 100000 nM, 62000 nM and > 100000 nM, respectively.

For `C[C@H](NC[C@@H](O)[C@H](Cc1ccccc1)NC(=O)c1cccc(N2CCCS2(=O)=O)c1)C(=O)NC1CCCCC1`, the half-maximal inhibitory concentration (IC50) in test [2] is 10000 nM; in test [4] it was 1900 nM; in test [5] it was > 21000 nM.

Take `CCCOc1cc(C(=O)N[C@@H](Cc2ccccc2)[C@H](O)CN[C@@H](C)C(=O)NC2CCCCC2)cc(N2CCCC2=O)c1`: the IC50 in test [1] was determined as 1690 nM; in test [2], 47100 nM; in test [3], 1380 nM; in test [5], 8240 nM.

`CCCCCS(=O)(=O)c1cccc(C(=O)N[C@@H](Cc2ccccc2)[C@H](O)CN[C@@H](C)C(=O)NC2CCCCC2)c1`: the half-inhibitory concentration (IC50) came to 600 nM in test [2] and 3600 nM in test [5].

Take `C[C@@H](C(=O)NC1CCCCC1)N(C)C[C@@H](O)[C@H](Cc1ccccc1)NC(=O)c1cccc(S(C)(=O)=O)c1`: the IC50 in test [4] is > 500000 nM.

Take `CCOc1cc(C(=O)N[C@@H](Cc2ccccc2)[C@H](O)CN[C@@H](C)C(=O)NC2CCCCC2)cc(N2CCCC2)c1`: the IC50 came to 6170 nM in test [2], 1450 nM in test [4] and 12900 nM in test [5].
